Measured values taken from patent US9850278B2, “Synthetic anti-inflammatory peptides and use thereof” (CARMEL-HAIFA UNIVERSITY ECONOMIC CORP., priority 2013, dated 2017).
Entries after “also recorded” stand apart in the source; their conditions may differ.

Assays:
[1] = system: TNF-α; test: TNF-α secretion by LPS-activated U937-derived human macrophages, supernatant ELISA; type: cell-based; conditions: peptide 1-1000 μM 24 hrs, then LPS 100 ng/ml 24 hours; FKE effect at low concentrations (1-10 μM); others compared with FKE
Procedure: (§1) U937 monocytic cells were cultured and underwent differentiation to macrophages as described above in Example 1. The cells were then incubated for 24 hrs in the presence of synthetic peptides, at 1-1000 μM: FKE (SEQ ID NO: 1), FKECHLA (SEQ ID NO: 21), FKECH (SEQ ID NO: 4), EKF or YKE (SEQ ID NO: 2). Control cells were left untreated. After 24 hours, untreated or peptide-treated cells were activated with lipopolysaccharide (LPS, 100 ng/ml for 24 hours). Following activation with LPS, cell free supernatants were collected and their content of IL-10, TGF-β, IL-6 and TNF-α was determined by standard ELISA.

[2] = system: IL-6; test: IL-6 secretion by U937-derived human macrophages, supernatant ELISA; type: cell-based; conditions: for IL-6 secretion, effect of peptide (Example 2, FIG. 4C): peptide 1-1000 μM 24 hrs, then LPS 100 ng/ml 24 hours, FKE effect at low concentrations (1-10 μM), others compared with FKE
Procedure: (§2) U937 monocytic cells were cultured in 1 ml culture media (RPMI 1640, Biological industries, Beit Haemek), supplemented with 10% Fetal Calf Serum (FCS), 1% pen strep (PS) and 0.04% β-mercaptoethanol) and seeded in 24 well plates (250,000 cells/well). The monocytes underwent differentiation to macrophages with PMA (50 ng/ml) for 48 Hours in a humidified atmosphere (7.5% CO2 at 37° C.). Then the cells were washed using preheated (37° C.) culture medium and synthetic peptides (FKE, SEQ ID NO: 1, or FKD, SEQ ID NO: 3, 0.1-1000 μM) were added to the cells for 24-48 hours. After 24 hours, untreated or peptide-treated cells were activated with lipopolysaccharide (LPS-stimulated, 100 ng/ml for 24 hours). After the indicated incubations, cell free supernatants were collected and their content of IL-10, TGF-β and IL-6 was determined by standard ELISA.
(§3) The results are presented in FIGS. 1-3 and summarized in Table 1 below (effect considered significant if ±30% of control):
as §1

[3] = system: TGF-β; test: TGF-β secretion by U937-derived human macrophages, supernatant ELISA; type: cell-based; conditions: for TGF-β secretion, effect of peptide (Example 2, FIG. 4B): peptide 1-1000 μM 24 hrs, then LPS 100 ng/ml 24 hours, FKE effect at low concentrations (1-10 μM), others compared with FKE
Procedure: as §2, §3, §1

[4] = system: IL-10; test: IL-10 secretion by U937-derived human macrophages, supernatant ELISA; type: cell-based; conditions: for IL-10 secretion, effect of peptide (Example 2, FIG. 4A): peptide 1-1000 μM 24 hrs, then LPS 100 ng/ml 24 hours, FKE effect at low concentrations (1-10 μM), others compared with FKE; for IL-10 secretion, effect of peptide: significant if ±30% of control
Procedure: as §2, §3, §1

[5] = system: bovine mammary gland epithelial lined cells (BMEC); conditions: reported by Komine et al.; BMEC named for the bovine peptides; cited from earlier work
[6] = LPS-stimulated macrophages (peptide 24 hrs, then LPS 100 ng/ml 24 hrs)
[7] = Non-stimulated, 24 hrs, peptide at 1000 μM
[8] = Non-stimulated, 48 hrs, peptide 0.1-1000 μM
[9] = peptide at low concentrations (1-10 μM)

## FKECH
[1]
  TNF-α secretion, effect of peptide (Example 2, FIG. 4D): pronounced activity in inhibiting
[2]
  IL-6 secretion, effect of peptide (Example 2, FIG. 4C): less active than FKE
[3]
  TGF-β secretion, effect of peptide (Example 2, FIG. 4B): less active than FKE
[4]
  IL-10 secretion, effect of peptide (Example 2, FIG. 4A): less active than FKE

## Glu-Lys-Phe [EKF]
[1]
  TNF-α secretion, effect of peptide (Example 2, FIG. 4D): moderate inhibition
[2]
  IL-6 secretion, effect of peptide (Example 2, FIG. 4C): did not reproduce these effects
[3]
  TGF-β secretion, effect of peptide (Example 2, FIG. 4B): did not reproduce these effects
[4]
  IL-10 secretion, effect of peptide (Example 2, FIG. 4A): did not reproduce these effects

## GQRDLFKDSAL [bovine counterpart of pep4, Komine et al]
[5]
  induction of pro-inflammatory cytokines and chemokines (TNF-α, IL-6, IL-8 and MCP-1): induced

## FKDCHLA [positions 243-249 of human lactoferrin, Komine et al]
[5]
  induction of pro-inflammatory cytokines and chemokines (TNF-α, IL-6, IL-8 and MCP-1): induction

## GQKDLLFKDSAI [positions 295-307 of human lactoferrin, Komine et al]
[5]
  induction of pro-inflammatory cytokines and chemokines (TNF-α, IL-6, IL-8 and MCP-1): induction

## FKECHLA [known bovine lactoferrin-derived synthetic peptide, excluded from Formula I]
[1]
  TNF-α secretion, effect of peptide (Example 2, FIG. 4D): reproduced the effects
[2]
  IL-6 secretion, effect of peptide (Example 2, FIG. 4C): reproduced the effects
[5]
  induction of pro-inflammatory cytokines and chemokines (TNF-α, IL-6, IL-8 and MCP-1): inactive

## phenylalanine-lysine-aspartic acid [FKD]
[2]; [6]
  IL-6 secretion, effect of peptide: increased; also recorded: Increase (all conc.)
[2]; [7]
  IL-6 secretion, effect of peptide: Increase (at
[2]; Non-stimulated, 48 hrs
  IL-6 secretion, peptide concentration at which increase starts: at 0.1 μM)
[2]; [8]
  IL-6 secretion, effect of peptide: Increase
[2]; Non-stimulated, 48 hrs, fold of FKE
  IL-6 secretion increase relative to FKE: 4 fold
[3]; LPS-stimulated, 24 hrs
  TGF-β secretion, peptide concentration of maximal effect: 10 µM
[3]; Non-stimulated, 24 hrs
  TGF-β secretion, peptide concentration of maximal effect: 1 µM
[3]; Non-stimulated, 48 hrs
  TGF-β secretion, peptide concentration of maximal effect: 10 µM
[4]; [6]
  IL-10 secretion, effect of peptide: decreased; also recorded: Decrease (max at
[4]; LPS-stimulated, 24 hrs
  IL-10 secretion, peptide concentration of maximal effect: 100 µM
[4]; Non-stimulated macrophages, 24 hrs incubation, peptide 0.1-1000 μM
  IL-10 secretion, effect of peptide: Decrease (max at
[4]; Non-stimulated, 24 hrs
  IL-10 secretion, peptide concentration of maximal effect: 1 µM
[4]; Non-stimulated, 48 hrs
  IL-10 secretion, peptide concentration of maximal effect: 1000 µM

## Phe-Lys-Glu (FKE)
[1]
  TNF-α secretion, effect of peptide (Example 2, FIG. 4D): inhibits
[2]; [6]
  IL-6 secretion, effect of peptide: No Increase
[2]; [7]
  IL-6 secretion, effect of peptide: Increase (at
[2]; Non-stimulated, 48 hrs
  IL-6 secretion, peptide concentration at which increase starts: at 0.1 μM)
[2]; [8]
  IL-6 secretion, effect of peptide: Increase (starts
[2]
  IL-6 secretion, effect of peptide (Example 2, FIG. 4C): inhibits
[3]; LPS-stimulated, 24 hrs
  TGF-β secretion, peptide concentration of maximal effect: 100 µM
[3]; Non-stimulated macrophages, 24 hrs incubation, peptide 0.1-1000 μM, significant if ±30% of control
  TGF-β secretion, effect of peptide: No effect
[3]; Non-stimulated, 48 hrs
  TGF-β secretion, peptide concentration of maximal effect: 10 µM
[3]
  TGF-β secretion, effect of peptide (Example 2, FIG. 4B): inhibits
[3]; [9]
  TGF-β secretion, effect of peptide (Example 1): inhibits
[4]; [6]
  IL-10 secretion, effect of peptide: increased
[4]; LPS-stimulated, 24 hrs
  IL-10 secretion, peptide concentration of maximal effect: 1 µM
[4]; Non-stimulated, 24 hrs
  IL-10 secretion, peptide concentration of maximal effect: 10 µM
[4]; Non-stimulated, 48 hrs
  IL-10 secretion, peptide concentration of maximal effect: 0.1 µM
[4]
  IL-10 secretion, effect of peptide (Example 2, FIG. 4A): induces
[4]; [9]
  IL-10 secretion, effect of peptide (Example 1): induces

## Tyr-Lys-Glu (YKE) [synthetic tripeptide, from the corresponding position in murine lactoferrin]
[1]
  TNF-α secretion, effect of peptide (Example 2, FIG. 4D): better inhibition
[2]
  IL-6 secretion, effect of peptide (Example 2, FIG. 4C): reproduced these effects
[4]
  IL-10 secretion, effect of peptide (Example 2, FIG. 4A): did not affect
